Measured values as given in patent publication US9283235B2, “Intermittent lowering of cortisol as treatment of clinical conditions associated with abnormal concentrations of cortisol in animals” (Stegram Pharmaceuticals Limited, priority 2001, dated 2016).

Columns and labels:
canine PDH = settings: of 10 dogs studied; cited from earlier work
[1] = system: dogs with hyperadrenocorticism (HAC); test: Prospective study of trilostane in dogs with spontaneous hyperadrenocorticism (HAC): clinical signs and survival; assay type: in vivo, dog; settings: given to 4 dogs for three to four days before enrolment
Method: Animals were entered into a prospective study and all animals required clinical and laboratory signs of hyperadrenocorticism as well as a final diagnosis of this disease. Data collected from each case included a clinical-historicy and physical examination, full blood count (CBC), serum biochemical profile, urinalysis and abdominal ultrasound. An ACTH-stimulation test was performed in all dogs. […] Dogs that had been treated for HAC other medication needed to be off these drugs for at least 10 days. Dogs with renal or hepatic insufficiency and dogs that received steroids were not included in the study.
Dogs with pituitary dependant hyperadrenocorticism or adrenal tumour which was unresectable or the owners were unwilling to have surgery performed, respectively, were treated with trilostane. The initial dose for dogs[…] was 30 mg once daily, dogs between 5 and 15 kg received 60 mg once daily and dogs>15 kg received 120 mg once daily. Dosages were adjusted based on clinical signs, blood biochemical parameters and an ACTH stimulation test.
Follow-up re-examinations took place after 10 days, 4 weeks, 3 mouths, 6 months and then every 6 months or within 4 weeks of adjusting the dosage. At these points, owners were carefully questioned about their perception of the dogs general well being, dissolution of clinical signs and potential side effects and a physical examination was performed. A full biochemical profile and an ACTH stimulation test were carried out. Further tests such as urinanalysis, urine culture, thoracic radiographs, etc. were done if deemed necessary. If the clinical sips of hyperadrenocorticism (polyuria/polydipsia, polyphagia, exercise intolerance, etc.) were still present and if the post-ACTH cortisol concentration remained above 220 nmol/l, trilostane was given twice daily at the same dosage.

Compound: C#CCN(C)[C@H](C)Cc1ccccc1 [L-Deprenyl]
- Dogs with improvement of clinical signs (canine PDH): 2 dogs

Compound: Clc1ccc(C(c2ccccc2Cl)C(Cl)Cl)cc1 (centres unmarked) [Lysodren]
- Clinical effect [1]: did not show any clinical effect
